Results reported in PubChem BioAssay AID1963825 (Molecular Pharmacology Branch, DTP, NCI, 2024).
pIC50: −log10 of the molar value.

Test: Anticancer human tumor 997537-175-T-J1-PDC patient-derived colon adenocarcinoma cell line growth inhibition [POLQ]
Details: 997537-175-T-J1-PDC complex spheroid viability, combination with POLQ inhibitors; for pIC50: curve of first compound; for viability, T/C: stronger effect = lower value
In short: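 PDC + HUVEC + MSC complex spheroids; POLQ inhibitors ± partner drugs; top conc. at/near clinical Cmax, else 10 microM (SN-38 1 microM), half-log dilutions; 37 degrees C, 5% CO2.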
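Note: luminescence signal used as a surrogate for viable cells; spheroids exposed to drugs for seven days before readout.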

CC(=O)O[C@H]1C(=O)[C@@]2(C)[C@H]([C@H](OC(=O)c3ccccc3)[C@]3(O)C[C@H](OC(=O)[C@H](O)[C@@H](NC(=O)c4ccccc4)c4ccccc4)C(C)=C1C3(C)C)[C@]1(OC(C)=O)CO[C@@H]1C[C@@H]2O + COC1C(OC(N)=O)C(O)C(Oc2ccc3c(O)c(NC(=O)c4ccc(O)c(CC=C(C)C)c4)c(=O)oc3c2C)OC1(C)C
pIC50 (second compound 0.0316 µM): 7.73 | pIC50 (second compound 0.1 µM): > 8.02 | pIC50 (second compound 0.316 µM): 7.08 | pIC50 (second compound 1 µM): 7.78 | pIC50 (second compound 3.16 µM): 7.84 | pIC50 (second compound 10 µM): 7.77 | viability, T/C (second compound 0.0316 µM, first compound 0.00949 µM): 65.5% | viability, T/C (second compound 0.0316 µM, first compound 0.03 µM): 41.5% | viability, T/C (second compound 0.0316 µM, first compound 0.0949 µM): 24.5% | viability, T/C (second compound 0.0316 µM, first compound 0.3 µM): 41.6% | viability, T/C (second compound 0.0316 µM, first compound 0.949 µM): 23.9% | viability, T/C (second compound 0.0316 µM, first compound 3 µM): 42% | viability, T/C (second compound 0.1 µM, first compound 0.00949 µM): 46.6% | viability, T/C (second compound 0.1 µM, first compound 0.03 µM): 41% | viability, T/C (second compound 0.1 µM, first compound 0.0949 µM): 23.9% | viability, T/C (second compound 0.1 µM, first compound 0.3 µM): 44.9% | viability, T/C (second compound 0.1 µM, first compound 0.949 µM): 21.9% | viability, T/C (second compound 0.1 µM, first compound 3 µM): 28.1% | viability, T/C (second compound 0.316 µM, first compound 0.00949 µM): 70.7% | viability, T/C (second compound 0.316 µM, first compound 0.03 µM): 60.1% | viability, T/C (second compound 0.316 µM, first compound 0.0949 µM): 34.6% | viability, T/C (second compound 0.316 µM, first compound 0.3 µM): 50.9% | viability, T/C (second compound 0.316 µM, first compound 0.949 µM): 34% | viability, T/C (second compound 0.316 µM, first compound 3 µM): 18.2% | viability, T/C (second compound 1 µM, first compound 0.00949 µM): 66.9% | viability, T/C (second compound 1 µM, first compound 0.03 µM): 32.5% | viability, T/C (second compound 1 µM, first compound 0.0949 µM): 22.9% | viability, T/C (second compound 1 µM, first compound 0.3 µM): 29.6% | viability, T/C (second compound 1 µM, first compound 0.949 µM): 29.9% | viability, T/C (second compound 1 µM, first compound 3 µM): 35.3% | viability, T/C (second compound 3.16 µM, first compound 0.00949 µM): 61.8% | viability, T/C (second compound 3.16 µM, first compound 0.03 µM): 24.9% | viability, T/C (second compound 3.16 µM, first compound 0.0949 µM): 22.7% | viability, T/C (second compound 3.16 µM, first compound 0.3 µM): 30.7% | viability, T/C (second compound 3.16 µM, first compound 0.949 µM): 44% | viability, T/C (second compound 3.16 µM, first compound 3 µM): 28.1% | viability, T/C (second compound 10 µM, first compound 0.00949 µM): 67.2% | viability, T/C (second compound 10 µM, first compound 0.03 µM): 27% | viability, T/C (second compound 10 µM, first compound 0.0949 µM): 35.5% | viability, T/C (second compound 10 µM, first compound 0.3 µM): 40.1% | viability, T/C (second compound 10 µM, first compound 0.949 µM): 27.4% | viability, T/C (second compound 10 µM, first compound 3 µM): 35.6%
